Legend:
[1] = Cytotoxicity against human Hs683 cells assessed as growth inhibition after 72 hrs by MTT colorimetric assay; assay type: functional, cell-based; conditions: Hs 683, 72 h
[2] = Cytotoxicity against human U373 cells assessed as growth inhibition after 72 hrs by MTT colorimetric assay; assay type: functional, cell-based, U-373MG ATCC; conditions: U373 MG
A549 [3] = test: Cytotoxicity against human A549 cells assessed as growth inhibition after 72 hrs by MTT colorimetric assay; assay type: functional, cell-based; conditions: A549, 72 h
[4] = Cytotoxicity against mouse B16F10 cells assessed as growth inhibition after 72 hrs by MTT colorimetric assay; assay type: functional, cell-based; conditions: B16-F10, 72 h
MCF7 [5] = test: Cytotoxicity against human MCF7 cells assessed as growth inhibition after 72 hrs by MTT colorimetric assay; assay type: functional, cell-based; conditions: MCF7, 72 h
SK-MEL-28 [6] = test: Cytotoxicity against human SK-MEL-28 cells assessed as growth inhibition after 72 hrs by MTT colorimetric assay; assay type: functional, cell-based; conditions: SK-MEL-28, 72 h
NHDF = test: Cytotoxicity against human NHDF cells assessed as growth inhibition after 72 hrs by MTT colorimetric assay; assay type: cell-based
[7] = Cytotoxicity against human NHLF cells assessed as growth inhibition after 72 hrs by MTT colorimetric assay; assay type: cell-based
[8] = Cytotoxicity against human Hs683 cells assessed as cell viability at 10 uM after 72 hrs by MTT colorimetric assay; assay type: functional; conditions: Hs 683, 72 h, read-out: Activity
[9] = Cytotoxicity against mouse B16F10 cells assessed as cell viability at 1 uM after 72 hrs by MTT colorimetric assay; assay type: functional; conditions: B16-F10, 72 h, read-out: Activity
A549 [10] = test: Cytotoxicity against human A549 cells assessed as cell viability at 5 uM after 72 hrs by MTT colorimetric assay; assay type: functional; conditions: A549, 72 h, read-out: Activity
A549 [11] = test: Cytotoxicity against human A549 cells assessed as cell viability at 50 uM after 72 hrs by MTT colorimetric assay; assay type: functional; conditions: A549, 72 h, read-out: Activity
[12] = Cytotoxicity against human Hs683 cells assessed as cell viability at 5 uM after 72 hrs by MTT colorimetric assay; assay type: functional; conditions: Hs 683, 72 h, read-out: Activity
A549 [13] = test: Cytotoxicity against human A549 cells assessed as cell viability at 0.5 uM after 72 hrs by MTT colorimetric assay; assay type: functional; conditions: A549, 72 h, read-out: Activity
[14] = Cytotoxicity against human U373 cells assessed as cell viability at 0.5 uM after 72 hrs by MTT colorimetric assay; assay type: functional, U-373MG ATCC; conditions: U373 MG, read-out: Activity
MCF7 [15] = test: Cytotoxicity against human MCF7 cells assessed as cell viability at 100 uM after 72 hrs by MTT colorimetric assay; assay type: functional; conditions: MCF7, 72 h, read-out: Activity
[16] = Cytotoxicity against human Hs683 cells assessed as cell viability at 1 uM after 72 hrs by MTT colorimetric assay; assay type: functional; conditions: Hs 683, 72 h, read-out: Activity
[17] = Cytotoxicity against mouse B16F10 cells assessed as cell viability at 0.5 uM after 72 hrs by MTT colorimetric assay; assay type: functional; conditions: B16-F10, 72 h, read-out: Activity
A549 [18] = test: Cytotoxicity against human A549 cells assessed as cell viability at 100 uM after 72 hrs by MTT colorimetric assay; assay type: functional; conditions: A549, 72 h, read-out: Activity
[19] = Cytotoxicity against human Hs683 cells assessed as cell viability at 0.05 uM after 72 hrs by MTT colorimetric assay; assay type: functional; conditions: Hs 683, 72 h, read-out: Activity
SK-MEL-28 [20] = test: Cytotoxicity against human SK-MEL-28 cells assessed as cell viability at 0.5 uM after 72 hrs by MTT colorimetric assay; assay type: functional; conditions: SK-MEL-28, 72 h, read-out: Activity
MCF7 [21] = test: Cytotoxicity against human MCF7 cells assessed as cell viability at 0.5 uM after 72 hrs by MTT colorimetric assay; assay type: functional; conditions: MCF7, 72 h, read-out: Activity
SK-MEL-28 [22] = test: Cytotoxicity against human SK-MEL-28 cells assessed as cell viability at 100 uM after 72 hrs by MTT colorimetric assay; assay type: functional; conditions: SK-MEL-28, 72 h, read-out: Activity
[23] = Cytotoxicity against human Hs683 cells assessed as cell viability at 0.5 uM after 72 hrs by MTT colorimetric assay; assay type: functional; conditions: Hs 683, 72 h, read-out: Activity
[24] = Cytotoxicity against human Hs683 cells assessed as cell viability at 50 uM after 72 hrs by MTT colorimetric assay; assay type: functional; conditions: Hs 683, 72 h, read-out: Activity
[25] = Cytotoxicity against mouse B16F10 cells assessed as cell viability at 50 uM after 72 hrs by MTT colorimetric assay; assay type: functional; conditions: B16-F10, 72 h, read-out: Activity
[26] = Cytotoxicity against human U373 cells assessed as cell viability at 10 uM after 72 hrs by MTT colorimetric assay; assay type: functional, U-373MG ATCC; conditions: U373 MG, read-out: Activity
MCF7 [27] = test: Cytotoxicity against human MCF7 cells assessed as cell viability at 5 uM after 72 hrs by MTT colorimetric assay; assay type: functional; conditions: MCF7, 72 h, read-out: Activity
A549 [28] = test: Cytotoxicity against human A549 cells assessed as cell viability at 10 uM after 72 hrs by MTT colorimetric assay; assay type: functional; conditions: A549, 72 h, read-out: Activity
[29] = Cytotoxicity against human Hs683 cells assessed as cell viability at 100 uM after 72 hrs by MTT colorimetric assay; assay type: functional; conditions: Hs 683, 72 h, read-out: Activity
[30] = Cytotoxicity against mouse B16F10 cells assessed as cell viability at 5 uM after 72 hrs by MTT colorimetric assay; assay type: functional; conditions: B16-F10, 72 h, read-out: Activity
MCF7 [31] = test: Cytotoxicity against human MCF7 cells assessed as cell viability at 50 uM after 72 hrs by MTT colorimetric assay; assay type: functional; conditions: MCF7, 72 h, read-out: Activity

Compound	IC50 [1] [µM]	IC50 [2] [µM]	IC50 (A549 [3]) [µM]	IC50 [4] [µM]	IC50 (MCF7 [5]) [µM]	IC50 (SK-MEL-28 [6]) [µM]	other results
COc1ccc(-c2cc(NC(=S)NNC(=O)c3ccc(C)cc3)cs2)cc1	30	> 100	35	7	40	22	–
Cc1ccc(C(=O)NNC(=S)Nc2csc(-c3ccccc3)c2)cc1	37	62	40	24	30	40	–
Cc1ccc(C(=O)NNC(=S)Nc2csc(-c3ccc(C)cc3)c2)cc1	40	38	37	20	29	44	–
COc1cc(C(=O)NNC(=S)Nc2csc(-c3ccccc3)c2)cc(OC)c1OC	42	44	39	32	43	55	–
COc1cc(C(=O)NNC(=S)Nc2csc(-c3ccc(C)cc3)c2)cc(OC)c1OC	42	47	39	13	31	42	–
COc1ccc(C(=O)NNC(=S)Nc2csc(-c3ccccc3)c2)cc1	35	41	36	33	32	30	–
COc1ccc(C(=O)NNC(=S)Nc2csc(-c3ccc(C)cc3)c2)cc1	12	19	11	9	5	11	IC50 (NHDF): 22 µM; IC50 [7]: 28 µM
O=C(NNC(=S)Nc1csc(-c2ccccc2)c1)c1ccc(O)cc1	80	> 100	75	40	78	71	–
Cc1ccc(-c2cc(NC(=S)NNC(=O)c3ccc(O)cc3)cs2)cc1	49	64	44	48	42	46	–
COc1cc(OC)cc(C(=O)NNC(=S)Nc2csc(-c3ccccc3)c2)c1	42	40	39	30	38	37	–
COc1cc(OC)cc(C(=O)NNC(=S)Nc2csc(-c3ccc(C)cc3)c2)c1	37	41	32	13	26	38	–
COc1ccc(C(=O)NNC(=S)Nc2csc(-c3ccccc3)c2)cc1OC	22	59	20	9	21	28	–
COc1ccc(C(=O)NNC(=S)Nc2csc(-c3ccc(C)cc3)c2)cc1OC	39	47	36	7	11	19	–
COc1ccc(-c2cc(Nc3nnc(-c4ccc(C)cc4)s3)cs2)cc1	–	> 100	–	–	> 100	> 100	viability at 10 µM [8]: < 50%; viability at 1 µM [9]: < 50%; viability at 5 µM (A549 [10]): < 50%
Cc1ccc(-c2nnc(Nc3csc(-c4ccccc4)c3)s2)cc1	–	> 100	–	4	34	> 100	viability at 50 µM (A549 [11]): < 50%; viability at 5 µM [12]: < 50%
Cc1ccc(-c2cc(Nc3nnc(-c4ccc(C)cc4)s3)cs2)cc1	–	–	–	–	–	> 100	viability at 0.5 µM (A549 [13]): < 50%; viability at 0.5 µM [14]: < 50%; viability at 100 µM (MCF7 [15]): < 50%; viability at 1 µM [9]: < 50%; viability at 1 µM [16]: < 50%
COc1cc(-c2nnc(Nc3csc(-c4ccccc4)c3)s2)cc(OC)c1OC	–	> 100	–	–	> 100	> 100	viability at 5 µM [12]: < 50%; viability at 0.5 µM [17]: < 50%; viability at 100 µM (A549 [18]): < 50%
COc1cc(-c2nnc(Nc3csc(-c4ccc(C)cc4)c3)s2)cc(OC)c1OC	–	–	–	12	–	–	viability at 0.05 µM [19]: < 50%; viability at 0.5 µM (A549 [13]): < 50%; viability at 0.5 µM [14]: < 50%; viability at 0.5 µM (SK-MEL-28 [20]): < 50%; viability at 0.5 µM (MCF7 [21]): < 50%
COc1ccc(-c2nnc(Nc3csc(-c4ccccc4)c3)s2)cc1	5	92	8	6	60	> 100	–
COc1ccc(-c2nnc(Nc3csc(-c4ccc(C)cc4)c3)s2)cc1	–	–	–	–	–	–	viability at 0.5 µM (A549 [13]): < 50%; viability at 100 µM (SK-MEL-28 [22]): < 50%; viability at 0.5 µM [14]: < 50%; viability at 0.5 µM [23]: < 50%; viability at 1 µM [9]: < 50%; viability at 0.5 µM (MCF7 [21]): < 50%
Oc1ccc(-c2nnc(Nc3csc(-c4ccccc4)c3)s2)cc1	26	58	15	8	24	57	–
Cc1ccc(-c2cc(Nc3nnc(-c4ccc(O)cc4)s3)cs2)cc1	17	8	6	6	8	14	–
COc1cc(OC)cc(-c2nnc(Nc3csc(-c4ccccc4)c3)s2)c1	–	92	–	–	–	> 100	viability at 50 µM [24]: < 50%; viability at 50 µM [25]: < 50%; viability at 100 µM (MCF7 [15]): < 50%; viability at 100 µM (A549 [18]): < 50%
COc1cc(OC)cc(-c2nnc(Nc3csc(-c4ccc(C)cc4)c3)s2)c1	–	–	–	–	–	> 100	viability at 5 µM [12]: < 50%; viability at 10 µM [26]: < 50%; viability at 1 µM [9]: < 50%; viability at 5 µM (MCF7 [27]): < 50%; viability at 10 µM (A549 [28]): < 50%
COc1ccc(-c2nnc(Nc3csc(-c4ccccc4)c3)s2)cc1OC	–	> 100	> 100	–	92	> 100	viability at 0.5 µM [17]: < 50%; viability at 100 µM [29]: < 50%
COc1ccc(-c2nnc(Nc3csc(-c4ccc(C)cc4)c3)s2)cc1OC	–	> 100	–	–	–	> 100	viability at 0.5 µM (A549 [13]): < 50%; viability at 5 µM [30]: < 50%; viability at 5 µM [12]: < 50%; viability at 50 µM (MCF7 [31]): < 50%
